Target: bacterial protein synthesis (S30 extract from quinolone-succeptable Streptococcus pneumoniae ATCC 46919)
Test: Translation assay, firefly luciferase reporter system with S30 Streptococcus pneumoniae extract
Format: biochemical
Conditions: cell-free S30 Streptococcus pneumoniae extract, luciferase mRNA; read-out: IC50, concentration which caused 50% inhibition of bacterial protein synthesis
Procedure: Bacterial protein synthesis inhibitory activity of the compounds and the aformentioned commercially-available antibacterials was determined by translation assays performed using the firefly luciferase reporter system described by Murray et al., (2001), “Staphylococcus aureus Cell Extract Transcription-Translation Assay: Firefly Luciferase Reporter System for Evaluating Protein Translation Inhibitors,” Antimicrob. Agents Chemother. 45(6): 1900-1904, replacing the Staphylococcus aureus S30 extract described therein with S30 Streptococcus pneumoniae extract from quinolone-succeptable Streptococcus pneumoniae ATCC 46919, and replacing plasmid coding for the luciferase gene with mRNA (encoding produced by in vitro transcription from the plasmid pAS10rbs3) which encoded the luciferase gene with an upstream Streptococcus pneumoniae promoter and Shine-Dalgarno site.

CC(=O)NC[C@H]1CN(c2ccc(N3CCOCC3)c(F)c2)C(=O)O1 [Linezolid]
IC50: ~3000 nM

— patent US8163769B2, “Antibacterial compounds” (Abbott Laboratories, priority 2002, dated 2012)
